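The compound was tested at five concentrations on cells cultured in 96-well plates, with a 48-hour exposure period. Abbreviation: GI50, concentration required for 50% inhibition of growth.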 Calls of active or inactive are those of the source. Rule as the data show it: active = GI50 up to about 1.1 µM and inactive = higher.
Assays:
Test in all cases: NCI tumour cell line growth inhibition, 48 h
786-0 = system: 786-0
A549 = system: A549
ACHN = system: ACHN
BT-549 = system: BT-549
CAKI-1 = system: CAKI-1
CCRF-CEM = system: CCRF-CEM
COLO 205 = system: COLO 205
DU-145 = system: DU-145
EKVX = system: EKVX
HCC 2998 = system: HCC 2998
HCT-116 = system: HCT-116
HCT-15 = system: HCT-15
HL-60 = system: HL-60
HOP-62 = system: HOP-62
HOP-92 = system: HOP-92
HT-29 = system: HT-29
Hs-578T = system: Hs-578T
IGROV-1 = system: IGROV-1
K562 = system: K562
KM12 = system: KM12
LOX IMVI = system: LOX IMVI
M14 = system: M14
MCF7 = system: MCF7
MDA-MB-231 = system: MDA-MB-231
MDA-MB-435 = system: MDA-MB-435
MDA-N = system: MDA-N
Malme-3M = system: Malme-3M
NCI-H226 = system: NCI-H226
NCI-H23 = system: NCI-H23
NCI-H460 = system: NCI-H460
NCI-H522 = system: NCI-H522
NCI/ADR-RES = system: NCI/ADR-RES
OVCAR-3 = system: OVCAR-3
OVCAR-4 = system: OVCAR-4
OVCAR-5 = system: OVCAR-5
OVCAR-8 = system: OVCAR-8
PC-3 = system: PC-3
RPMI-8226 = system: RPMI-8226
RXF 393 = system: RXF 393
SF-268 = system: SF-268
SF-295 = system: SF-295
SK-MEL-28 = system: SK-MEL-28
SK-MEL-2 = system: SK-MEL-2
SK-MEL-5 = system: SK-MEL-5
SK-OV-3 = system: SK-OV-3
SN12C = system: SN12C
SNB-19 = system: SNB-19
SNB-75 = system: SNB-75
SR = system: SR
SW-620 = system: SW-620
T47D = system: T47D
TK-10 = system: TK-10
U-251 = system: U-251
UACC-257 = system: UACC-257
UACC-62 = system: UACC-62
UO-31 = system: UO-31
MOLT-4 = system: MOLT-4
SF-539 = system: SF-539

O=[N+]([O-])c1cc(-[n+]2cc([O-])on2)ccc1Cl
GI50 (786-0): 21.3 µM (inactive) | GI50 (A549): 31 µM (inactive) | GI50 (ACHN): 16 µM (inactive) | GI50 (BT-549): 19.9 µM (inactive) | GI50 (CAKI-1): 2.44 µM (inactive) | GI50 (CCRF-CEM): 23.6 µM (inactive) | GI50 (COLO 205): 27.7 µM (inactive) | GI50 (DU-145): 16.9 µM (inactive) | GI50 (EKVX): 19 µM (inactive) | GI50 (HCC 2998): 18.1 µM (inactive) | GI50 (HCT-116): 16.1 µM (inactive) | GI50 (HCT-15): 20.7 µM | GI50 (HL-60): 35 µM (inactive) | GI50 (HOP-62): 15.3 µM (inactive) | GI50 (HOP-92): 19.2 µM (inactive) | GI50 (HT-29): 15.1 µM (inactive) | GI50 (Hs-578T): 13.6 µM (inactive) | GI50 (IGROV-1): 24.3 µM (inactive) | GI50 (K562): 42.4 µM (inactive) | GI50 (KM12): 22 µM (inactive) | GI50 (LOX IMVI): 17.9 µM (inactive) | GI50 (M14): 15.5 µM (inactive) | GI50 (MCF7): 19.4 µM (inactive) | GI50 (MDA-MB-231): 17.4 µM (inactive) | GI50 (MDA-MB-435): 27.6 µM (inactive) | GI50 (MDA-N): 14.9 µM (inactive) | GI50 (Malme-3M): 13.6 µM (inactive) | GI50 (NCI-H226): 83.8 µM (inactive) | GI50 (NCI-H23): 13.7 µM (inactive) | GI50 (NCI-H460): 34.2 µM (inactive) | GI50 (NCI-H522): 17.8 µM (inactive) | GI50 (NCI/ADR-RES): 18 µM (inactive) | GI50 (OVCAR-3): 37.3 µM (inactive) | GI50 (OVCAR-4): 14 µM (inactive) | GI50 (OVCAR-5): 18.1 µM (inactive) | GI50 (OVCAR-8): 20.6 µM (inactive) | GI50 (PC-3): > 100 µM (inactive) | GI50 (RPMI-8226): 24.3 µM (inactive) | GI50 (RXF 393): 14.8 µM (inactive) | GI50 (SF-268): 22.2 µM (inactive) | GI50 (SF-295): 23.7 µM (inactive) | GI50 (SK-MEL-28): 16.1 µM (inactive) | GI50 (SK-MEL-2): 21.5 µM (inactive) | GI50 (SK-MEL-5): 10.2 µM (inactive) | GI50 (SK-OV-3): 33.5 µM (inactive) | GI50 (SN12C): 16.3 µM (inactive) | GI50 (SNB-19): 14.2 µM (inactive) | GI50 (SNB-75): 25.8 µM (inactive) | GI50 (SR): 29.9 µM (inactive) | GI50 (SW-620): 13.4 µM (inactive) | GI50 (T47D): 16.4 µM (inactive) | GI50 (TK-10): 18.6 µM (inactive) | GI50 (U-251): 17 µM (inactive) | GI50 (UACC-257): 13.8 µM (inactive) | GI50 (UACC-62): 27.8 µM (inactive) | GI50 (UO-31): 17.3 µM (inactive)

Cn1c2c(c3ccccc31)CC1c3c(c4ccccc4n3C)CC21 (configuration not stated)
GI50 (786-0): > 100 µM (inactive) | GI50 (A549): > 100 µM (inactive) | GI50 (ACHN): > 100 µM (inactive) | GI50 (BT-549): > 100 µM (inactive) | GI50 (CAKI-1): > 100 µM (inactive) | GI50 (CCRF-CEM): > 100 µM (inactive) | GI50 (COLO 205): > 100 µM (inactive) | GI50 (DU-145): > 100 µM (inactive) | GI50 (EKVX): > 100 µM (inactive) | GI50 (HCC 2998): > 100 µM (inactive) | GI50 (HCT-15): > 100 µM | GI50 (HL-60): > 100 µM (inactive) | GI50 (HOP-62): > 100 µM (inactive) | GI50 (HOP-92): > 100 µM (inactive) | GI50 (HT-29): > 100 µM (inactive) | GI50 (Hs-578T): > 100 µM (inactive) | GI50 (IGROV-1): > 100 µM (inactive) | GI50 (K562): > 100 µM (inactive) | GI50 (KM12): > 100 µM (inactive) | GI50 (LOX IMVI): > 100 µM (inactive) | GI50 (M14): > 100 µM (inactive) | GI50 (MCF7): > 100 µM (inactive) | GI50 (MDA-MB-231): > 100 µM (inactive) | GI50 (MDA-MB-435): > 100 µM (inactive) | GI50 (MDA-N): > 100 µM (inactive) | GI50 (MOLT-4): > 100 µM (inactive) | GI50 (Malme-3M): > 100 µM (inactive) | GI50 (NCI-H226): > 100 µM (inactive) | GI50 (NCI-H23): > 100 µM (inactive) | GI50 (NCI-H460): > 100 µM (inactive) | GI50 (NCI-H522): > 100 µM (inactive) | GI50 (NCI/ADR-RES): > 100 µM (inactive) | GI50 (OVCAR-3): > 100 µM (inactive) | GI50 (OVCAR-4): > 100 µM (inactive) | GI50 (OVCAR-5): > 100 µM (inactive) | GI50 (OVCAR-8): > 100 µM (inactive) | GI50 (PC-3): > 100 µM (inactive) | GI50 (RPMI-8226): > 100 µM (inactive) | GI50 (RXF 393): > 100 µM (inactive) | GI50 (SF-268): > 100 µM (inactive) | GI50 (SF-295): > 100 µM (inactive) | GI50 (SF-539): > 100 µM (inactive) | GI50 (SK-MEL-28): > 100 µM (inactive) | GI50 (SK-MEL-5): > 100 µM (inactive) | GI50 (SK-OV-3): > 100 µM (inactive) | GI50 (SN12C): > 100 µM (inactive) | GI50 (SNB-19): > 100 µM (inactive) | GI50 (SNB-75): > 100 µM (inactive) | GI50 (SR): > 100 µM (inactive) | GI50 (SW-620): > 100 µM (inactive) | GI50 (T47D): > 100 µM (inactive) | GI50 (TK-10): > 100 µM (inactive) | GI50 (U-251): > 100 µM (inactive) | GI50 (UACC-257): > 100 µM (inactive) | GI50 (UACC-62): > 100 µM (inactive) | GI50 (UO-31): > 100 µM (inactive)
